Laboratory results published in patent US20120164242A1, “NOVEL METHODS FOR MODULATING MELANIN PRODUCTION” (priority 2010, published 2012).

System: melanogenesis related genes
Assay: RT-PCR mRNA level of melanogenesis related genes in B16-F10 cells
Assay type: cell-based, mouse
Settings: 100 μM, three days
Description: To determine whether THSG had similar effects as the PMT extract on the induction of melanin related gene expression, B16-F10 cells were cultured in medium containing PMT extract (10 μg/mL), THSG (10 μg/mL), naringenin (100 μM) for three days and RT-PCR was performed to analyze melanin biosynthesis related gene expression using the protocol as described in Example 4 above.

## O=C1C[C@@H](c2ccc(O)cc2)Oc2cc(O)cc(O)c21 [naringenin]
  mRNA level of melanogenesis related genes: no increase
